Earlier results as cited in patent US20110190220A1, “Use of Defensin Alpha 1 and/or Defensin Alpha 4, as a Marker for Predicting Treatment Response and/or a Relapse in a Patient Suffering form Chronic Myeloid Leukemia” (priority 2008, published 2011).
Where a name gives a salt, the structure may show the parent alone.

Tested on: CML patients

**Q.** For `Cc1ccc(NC(=O)c2ccc(CN3CCN(C)CC3)cc2)cc1Nc1nccc(-c2cccnc2)n1` [Imatinib, Imatinib mesylate], which “complete or nearly complete cytogenetic remission, share of patients” value (CML patients treated in chronic phase) is on record?
**A.** up to 80%

**Q.** And the “CML patients who are or become resistant to treatment” value (CML patients treated with imatinib)?
**A.** about 20%
